Results reported in ChEMBL document CHEMBL1201862, “PubChem BioAssay data set” (2004).
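Tested at 5 concentrations; 48 h exposure; 96-well plates; endpoints linearly interpolated, else capped at highest concentration. GI50 marks 50% less growth.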 Activity calls are given as the source filed them. Cut-off read from the data, not from the text of the source: active = GI50 up to about 1.1 µM and inactive = higher.

How the values were obtained:
Experiment in all cases: growth of human tumour cells (NCI), 48 h
OVCAR-8 = system: OVCAR-8
SR = system: SR
NCI-H23 = system: NCI-H23
BT-549 = system: BT-549
U-251 = system: U-251
RPMI-8226 = system: RPMI-8226
SW-620 = system: SW-620
A549 = system: A549
K562 = system: K562
A498 = system: A498
SK-MEL-28 = system: SK-MEL-28
Hs-578T = system: Hs-578T
MDA-N = system: MDA-N
SF-539 = system: SF-539
IGROV-1 = system: IGROV-1
MDA-MB-231 = system: MDA-MB-231
M14 = system: M14
TK-10 = system: TK-10
LOX IMVI = system: LOX IMVI
PC-3 = system: PC-3

Row | Structure (SMILES) | GI50 (OVCAR-8) | GI50 (SR) | GI50 (NCI-H23) | GI50 (BT-549) | GI50 (U-251) | GI50 (RPMI-8226) | GI50 (SW-620) | GI50 (A549) | GI50 (K562) | GI50 (A498) | GI50 (SK-MEL-28) | GI50 (Hs-578T) | GI50 (MDA-N) | GI50 (SF-539) | GI50 (IGROV-1) | GI50 (MDA-MB-231) | GI50 (M14) | GI50 (TK-10) | GI50 (LOX IMVI) | GI50 (PC-3)
1 | Cn1c2c(c3ccccc31)CCN1C(=O)C34CCCC3CC21S4 (centres undefined) | > 100 µM (inactive) | > 100 µM (inactive) | > 100 µM (inactive) | > 100 µM (inactive) | > 100 µM (inactive) | > 100 µM (inactive) | > 100 µM (inactive) | > 100 µM (inactive) | > 100 µM (inactive) | > 100 µM (inactive) | > 100 µM (inactive) | > 100 µM (inactive) | > 100 µM (inactive) | > 100 µM (inactive) | > 100 µM (inactive) | > 100 µM (inactive) | > 100 µM (inactive) | > 100 µM (inactive) | > 100 µM (inactive) | 95.1 µM (inactive)
2 | C1=C(c2ccccc2)C(N2CCOCC2)Oc2ccccc21 (centres undefined) | > 100 µM (inactive) | > 100 µM (inactive) | > 100 µM (inactive) | 45.3 µM (inactive) | > 100 µM (inactive) | 96.4 µM (inactive) | > 100 µM (inactive) | > 100 µM (inactive) | 91.8 µM (inactive) | 25.5 µM (inactive) | > 100 µM (inactive) | > 100 µM (inactive) | 92.5 µM (inactive) | > 100 µM (inactive) | > 100 µM (inactive) | > 100 µM (inactive) | > 100 µM (inactive) | > 100 µM (inactive) | > 100 µM (inactive) | 77.4 µM (inactive)
3 | COc1nc2ccc(Cl)c(C(O)c3ccccc3)c2nc1OC (centres undefined) | 29 µM (inactive) | 6.52 µM (inactive) | 17.2 µM (inactive) | 30.9 µM (inactive) | 25.3 µM (inactive) | 14.1 µM (inactive) | 26.7 µM (inactive) | 23.8 µM (inactive) | 18.6 µM (inactive) | 18.6 µM (inactive) | 35.5 µM (inactive) | 14.9 µM (inactive) | 11.5 µM (inactive) | 18.3 µM (inactive) | 24.8 µM (inactive) | 15.4 µM (inactive) | 17.2 µM (inactive) | 37.2 µM (inactive) | 17.5 µM (inactive) | 26.5 µM (inactive)
4 | O=C1C=CC(=O)c2ncccc21 | 9.04 µM (inactive) | 0.597 µM (active) | 10.3 µM (inactive) | 4.45 µM (inactive) | 3.18 µM (inactive) | 2.55 µM (inactive) | 1.93 µM (inactive) | 10.1 µM (inactive) | 2.32 µM (inactive) | 13.8 µM (inactive) | 3.46 µM (inactive) | 10.2 µM (inactive) | 4.56 µM (inactive) | 7.98 µM (inactive) | 5.07 µM (inactive) | 2.47 µM (inactive) | 3.68 µM (inactive) | 6.28 µM (inactive) | 2.09 µM (inactive) | 9.82 µM (inactive)
5 | C=C1CC(COc2cc(=O)oc3ccccc23)(c2ccccc2)OC1=O (centres undefined) | 1.86 µM (inactive) | 6.32 µM (inactive) | 1.77 µM (inactive) | 1.53 µM (inactive) | 9.4 µM (inactive) | 0.507 µM (active) | 1.17 µM (inactive) | 11.2 µM (inactive) | 0.637 µM (active) | 2.38 µM (inactive) | 2.41 µM (inactive) | 3.53 µM (inactive) | 2.05 µM (inactive) | 2.74 µM (inactive) | 1.51 µM (inactive) | 3.61 µM (inactive) | 1.51 µM (inactive) | 1.59 µM (inactive) | 1.45 µM (inactive) | 1.95 µM (inactive)
6 | CO[C@H]1C[C@H](O[C@H]2CC[C@]3(C=O)[C@H]4CC[C@]5(C)[C@@H](C6=CC(=O)OC6)CC[C@]5(O)[C@@H]4CC[C@]3(O)C2)O[C@H](C)[C@H]1O [CYMARIN] | 0.307 µM (active) | 0.409 µM (active) | 0.157 µM (active) | 0.207 µM (active) | 0.314 µM (active) | 0.27 µM (active) | 0.243 µM (active) | 0.0805 µM (active) | 0.184 µM (active) | 0.294 µM (active) | 0.845 µM (active) | 0.525 µM (active) | 0.136 µM (active) | 0.0809 µM (active) | 0.448 µM (active) | 1.14 µM (inactive) | 0.528 µM (active) | 0.167 µM (active) | 0.184 µM (active) | 0.203 µM (active)
7 | S=C1NC(c2ccccc2)NC(c2ccccc2)S1 (centres undefined) | > 100 µM (inactive) | > 100 µM (inactive) | > 100 µM (inactive) | > 100 µM (inactive) | 39.4 µM (inactive) | > 100 µM (inactive) | > 100 µM (inactive) | > 100 µM (inactive) | 42.2 µM (inactive) | > 100 µM (inactive) | > 100 µM (inactive) | > 100 µM (inactive) | > 100 µM (inactive) | > 100 µM (inactive) | > 100 µM (inactive) | > 100 µM (inactive) | > 100 µM (inactive) | > 100 µM (inactive) | 78.9 µM (inactive) | > 100 µM (inactive)
8 | COc1cccc2c(=O)c3c(n(C)c12)OC(C(C)C)C3 (centres undefined) | > 100 µM (inactive) | 30.8 µM (inactive) | > 100 µM (inactive) | > 100 µM (inactive) | > 100 µM (inactive) | 46.7 µM (inactive) | > 100 µM (inactive) | > 100 µM (inactive) | 27.5 µM (inactive) | > 100 µM (inactive) | > 100 µM (inactive) | > 100 µM (inactive) | > 100 µM (inactive) | > 100 µM (inactive) | 42.6 µM (inactive) | > 100 µM (inactive) | > 100 µM (inactive) | > 100 µM (inactive) | > 100 µM (inactive) | > 100 µM (inactive)
9 | O=C(Nc1ccc2[nH]c(C(=O)N3CC(CCl)c4c3cc([N+](=O)[O-])c3ccccc43)cc2c1)c1cc2ccccc2o1 (centres undefined) | > 55.6 µM (inactive) | 95.9 µM (inactive) | > 55.7 µM (inactive) | 38.2 µM (inactive) | > 54.3 µM (inactive) | > 100 µM (inactive) | > 58.1 µM (inactive) | > 100 µM (inactive) | > 100 µM (inactive) | > 57.7 µM (inactive) | > 58.1 µM (inactive) | > 100 µM (inactive) | > 100 µM (inactive) | > 1100 µM (inactive) | > 51.6 µM (inactive) | > 63 µM (inactive) | > 100 µM (inactive) | > 54.5 µM (inactive) | > 51.2 µM (inactive) | > 50.6 µM (inactive)
10 | Cc1ccc(NC(=S)N/N=C(/c2ccccc2)c2ccccn2)cc1 | 0.0569 µM (active) | < 0.01 µM (active) | < 0.0187 µM (active) | 4.25 µM (inactive) | 0.0265 µM (active) | < 0.0161 µM (active) | < 0.0183 µM (active) | 0.108 µM (active) | < 0.0117 µM (active) | 0.815 µM (active) | 0.224 µM (active) | 13.1 µM (inactive) | 0.708 µM (active) | 0.729 µM (active) | < 0.0173 µM (active) | < 0.01 µM (active) | < 0.01 µM (active) | 0.0631 µM (active) | 0.0346 µM (active) | < 0.0154 µM (active)
11 | Cc1cccc(-c2cc(O)c3ccc(C)nc3n2)c1 | 0.8 µM (active) | 0.0491 µM (active) | 0.643 µM (active) | 0.435 µM (active) | 0.389 µM (active) | 0.43 µM (active) | 0.101 µM (active) | 0.508 µM (active) | 0.0993 µM (active) | 0.644 µM (active) | 2.75 µM (inactive) | 0.337 µM (active) | 0.0283 µM (active) | 0.338 µM (active) | 0.601 µM (active) | 0.409 µM (active) | 0.226 µM (active) | 3.3 µM (inactive) | 0.556 µM (active) | 0.261 µM (active)
12 | COC(=O)[C@@H]1CS(=O)(=O)C(C(C)C)N1C(C)=O (some centres undefined) | > 100 µM (inactive) | > 100 µM (inactive) | > 100 µM (inactive) | > 100 µM (inactive) | > 100 µM (inactive) | > 100 µM (inactive) | > 100 µM (inactive) | > 100 µM (inactive) | > 100 µM (inactive) | > 100 µM (inactive) | > 100 µM (inactive) | > 100 µM (inactive) | > 100 µM (inactive) | > 100 µM (inactive) | > 100 µM (inactive) | > 100 µM (inactive) | > 100 µM (inactive) | > 100 µM (inactive) | > 100 µM (inactive) | > 100 µM (inactive)
13 | COc1ccc(/C=C/C(=O)c2ccccc2)cc1OC | 16.3 µM (inactive) | 3.15 µM (inactive) | 20.7 µM (inactive) | 18.2 µM (inactive) | 9.59 µM (inactive) | 7.41 µM (inactive) | 4.23 µM (inactive) | 20.9 µM (inactive) | 3.21 µM (inactive) | 16.4 µM (inactive) | 21.1 µM (inactive) | 25 µM (inactive) | 4.13 µM (inactive) | 11.1 µM (inactive) | 17.2 µM (inactive) | 19.5 µM (inactive) | 15 µM (inactive) | 17.2 µM (inactive) | 5.46 µM (inactive) | 11.3 µM (inactive)
14 | C[C@]12CC[C@@H]3c4cc(C=O)c(OCc5ccccc5)cc4CC[C@H]3[C@@H]1CCC2OCc1ccccc1 (some centres undefined) | > 100 µM (inactive) | 73.1 µM (inactive) | 89.9 µM (inactive) | > 100 µM (inactive) | > 100 µM (inactive) | > 100 µM (inactive) | > 100 µM (inactive) | 60.7 µM (inactive) | > 100 µM (inactive) | > 100 µM (inactive) | > 100 µM (inactive) | > 100 µM (inactive) | > 100 µM (inactive) | > 100 µM (inactive) | – | > 100 µM (inactive) | > 100 µM (inactive) | > 100 µM (inactive) | > 100 µM (inactive) | 56.6 µM (inactive)
